These results are taken from publication PMC8199613, “Discovery of Novel Small-Molecule Inhibitors of PD-1/PD-L1 Interaction via Structural Simplification Strategy” (Molecules, 2021).

Series [1] deals with Hep3B/OS-8/hPD-L1 and CD3+ T cells co-culture. The series can be described thus: IFN-γ production in Hep3B/OS-8/hPD-L1 and CD3+ T cell co-culture assay.
Series [2] concerns Jurkat T cells. The series can be described thus: MTT non-specific cytotoxicity assay, Jurkat. The series is classed as cell-based. The protocol:
(§1) Considering that the toxicity of the compound might strongly interfere with the assay if the tested compounds could block PD-1/PD-L1 interaction to activate T cells for killing tumors, we examined their cell toxicities of MDA-MB-231 and Jurkat T cells in MTT assay. […] Furthermore, Jurkat T cells were used to simulate primary T cells for investigating the immune toxicity of the treated compounds with the regular concentrations within 48 h.
(§2) The MDA-MB-231 and Jurkat cell line was provided by the Chinese Academy of Sciences Cell Bank. The cytotoxicity of the test compounds was determined using the MTT assay. Briefly, MDA-MB-231 and Jurkat cells were incubated at 37 °C in a humidified 5% CO2 incubator for 24 h in 96-microwell plates. Then, 100 μL of culture medium containing the test compounds at different concentrations was added to each well and incubated at 37 °C for another 48 h. The MTT was added and incubated for another 4 h, and the optical density was detected with a microplate reader at 570 nm. The IC50 values were calculated according to the dose-dependent curves.

Series [3] concerns MDA-MB-231 cells. The series can be described thus: MTT non-specific cytotoxicity assay, MDA-MB-231. The series is classed as cell-based. As for the experimental part: as §1, §2
Series [4] can be described thus: Water solubility by HPLC. The series is classed as physicochemical. To be noted: aqueous buffer, thermodynamic from solid, pH 7.4, PBS. As for the experimental part:
The aqueous solubility was estimated by HPLC. The HPLC analysis was performed on a Shimadzu LC-20AT machine with a BDS Hypersil C18 column, and the column temperature was at 28 °C. Mobile phase B (100% MeOH) and mobile phase A (100% water) were used in a gradient elution program (0 min: 30% (B), 2 min: 50% (B), 8 min: 95% (B), 14 min: 95% (B), 18 min: 70% (B), 20 min: 30% (B)) with a flow rate of 1.0 mL/min at […]. Methanol was used to configure an accurate compounds concentration to calculate the standard curve. The excess test compound was dissolved in PBS (KH2PO4 0.24 g + KCl 0.2 g + NaCl 8 g + Na2HPO4·12H2O 3.58 g + 1 L water) and then analyzed by HPLC.

For series [5], the target named is T1, PD-1/PD-L1 interaction (Homo sapiens, UniProt Q9NZQ7).
T1 construct: purchased Cisbio 64ICP01PEG
The series can be described thus: HTRF-based PD-1/PD-L1 binding assay. A general note: TR-FRET usually uses a lanthanide donor and a delayed reading to cut background.

Series [6] concerns the target hPD-L1 (Homo sapiens, UniProt Q9NZQ7). The series can be described thus: SPR binding affinity assay (Biacore T200). As for the experimental part: To provide definitive evidence of direct binding to PD-L1 with small-molecule inhibitors, an SPR-based binding assay was performed using Biacore T200 instrument, which facilitates measurement of the kinetic parameters of ligand–protein complex formation. In this determination, hPD-L1/Fc was loaded on a Series S Sensor Chip Protein A. A9 and A15, with similar bioactivities in HTRF assay, were gradually subjected to this assay, and their kinetic parameters and the binding affinities were determined with the aid of Biacore evaluation software.
SPR analysis was carried out according to the method described by a previous article. The kinetic analysis for the interaction of small molecules with hPD-L1 was performed on a Biacore T200 (GE Healthcare Bio-sciences, Uppsala, Sweden) using Series S Sensor Chip Protein A (GE Healthcare Bio-sciences, Uppsala, Sweden, catalog # 29139131-AA). Briefly, Fc-hPD-L1 (Acro Biosystems, Cambridge, MA, USA, catalog #PD1-H5258) was diluted using 1 × PBS-P^+ buffer (phosphate buffer 1×, GE Healthcare Bio-sciences, catalog # 28-9950-84, enriched with 0.05% surfactant P20) containing 5% DMSO (Sigma-Aldrich, St. Louis, MO, America, catalog # D4540) and captured as the ligand (i.e., the target of small molecules) on protein A chip surface following Biacore T200 build-in protocol for kinetic/affinity analysis at a concentration of 10 μg/mL. The contact time and flow rates were set as 120 s and 10 μL/min for the ligand capture. Each experiment was performed using a pair of flow cells, one with ligand captured and the other kept as reference. A concentration gradient of analytes was freshly prepared in 1× PBS-P^+ buffer with 5% DMSO with at least five concentrations, and the concentration range was optimized according to different analytes. Analytes could flow through both ligand-captured flow cells and reference flow cells at the same rate (30 μL/min) and contact time (90 s). Solvent correction was included to avoid the impact of DMSO on surface plasmon effect during binding analysis. Extra washing of the flow system using 50% DMSO in 1×PBS-P^+ buffer was allowed to control carry over effects. For the regeneration of surface after each cycle (one-time ligand capture and binding of analyte at a single concentration) was carried out using 10 mM glycine pH 1.5 (GE Healthcare Bio-sciences, Uppsala, Sweden, catalog #BR-1003-54) at a flow rate of 30 μL/min for 30 s. Kinetic analysis was performed at 25 °C. Maximum binding response (Rmax) and equilibrium dissociation […] (KD) values were calculated using Biacore T200 Evaluation software following the 1:1 binding model.
In general terms: In SPR one partner is held on a chip, and binding of the other changes the refractive index at the surface.

Converted amounts (≈) assume the structure as drawn. “Also recorded” adds a separate entry of the source.

hPD-L1, sequence (Q9NZQ7 19-238 limits assumed): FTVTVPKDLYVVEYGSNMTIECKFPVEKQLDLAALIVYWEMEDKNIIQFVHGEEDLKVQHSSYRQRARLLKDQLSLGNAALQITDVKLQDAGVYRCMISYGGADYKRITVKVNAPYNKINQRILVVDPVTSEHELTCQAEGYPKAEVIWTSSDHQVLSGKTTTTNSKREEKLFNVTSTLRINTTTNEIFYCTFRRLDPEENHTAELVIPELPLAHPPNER
T1 sequence (Q9NZQ7 19-238 limits assumed): as above

A word on the solubility: it is the concentration that dissolves in the medium under given conditions. As usually defined, the IC50 is the concentration that gives 50% inhibition. For orientation: Kd means a measure of binding affinity in units of concentration. A low value points to a tighter complex. As for `COc1nc(-c2cccc(-c3ccccc3F)c2C)ccc1CNCCC(N)=O` [Compound A9, 3-(((6-(2′-Fluoro-2-methyl-[1,1′-biphenyl]-3-yl)-2-methoxypyridin-3-yl)methyl)amino)propenamide], the “IFN-γ production / release” value in series [1] (72 h co-culture, ELISA, dose response) was “promote the dose-dependent release of IFN-γ; also recorded: significantly promote the production of IFN-γ in a dose-dependent manner; also recorded: potently induces the release of IFN-γ”. The “promoting effect on IFN-γ production compared with BMS-202” value in series [1] (A9 at 5 μM) is reported as “significantly higher than that of BMS-202”. Further, the “promoting effect on IFN-γ production compared with Keytruda” value in series [1] (A9 at 5 μM vs Keytruda at 5 μg/mL) is given as “comparable promoting effect on production of INF-γ; also recorded: comparable to that of Keytruda at 5 μg/mL”. Also, the EC50 in series [2] (Homo sapiens, Jurkat, MTT, 48 h, read-out: EC50 (μM)/Jurkat Toxicity) came to 7.6 µM; in series [3] (Homo sapiens, MDA-MB-231, 48 h, read-out: EC50 (μM)/MDA-MB-231 Toxicity) it was 11.1 µM. Besides, the “immune toxicity in Jurkat T cells” value in series [2] (regular concentrations within 48 h) is “lower cell toxicity”. For the same compound, in series [3] (as shown in Table 3), the “direct killing of tumor cells” value is on record as “do not directly kill tumor cells”. In series [4], this compound yielded a solubility of 126 µg/mL (≈ 321 µM). The “increase in activity as compared with A4” value in series [5] (HTRF IC50 ratio) was “more than 23 fold”. Further, in series [5] (HTRF, two independent experiments), the half-inhibitory concentration (IC50) worked out at 0.00093 µM. The LE in series [5] (LE = −1.35 logIC50/Nheavy atoms (HTRF IC50)) is 0.43; in series [6] (LE = -1.35log KD/Nheavy atoms (SPR KD)), 0.40. Besides, the “KD compared with that of A15” value in series [6] (SPR KD ratio) is 5 fold. In addition, the kon in series [6] (SPR association rate, read-out: Ka (M-1s-1) / Kon) was 538000 M⁻¹ s⁻¹. For the same compound, the koff in series [6] (SPR dissociation rate, read-out: Kd (s-1) / Koff) amounted to 0.00196 s⁻¹. The same compound returned a Kd in series [6] (SPR, 25 °C, 1:1 binding model) of 0.00364 µM.
